For six compounds, IC50 results are on record in ChEMBL document CHEMBL1129295, “Studies of cardiotonic agents. 8. Synthesis and biological activities of optically active 6-(4-(benzylamino)-7-quinazolinyl)-4,5-dihydro-5-methyl-3(2H)- pyridazinone (KF15232)” (J Med Chem, 1996).

The IC50 is the concentration that inhibits the measured activity by half.

One assay deals with Phosphodiesterase 3B (Bos taurus, UniProt E1BN64). Kind of assay: Inhibition of bovine arterial Phosphodiesterase 3.
Chain of Phosphodiesterase 3B (E1BN64 whole entry): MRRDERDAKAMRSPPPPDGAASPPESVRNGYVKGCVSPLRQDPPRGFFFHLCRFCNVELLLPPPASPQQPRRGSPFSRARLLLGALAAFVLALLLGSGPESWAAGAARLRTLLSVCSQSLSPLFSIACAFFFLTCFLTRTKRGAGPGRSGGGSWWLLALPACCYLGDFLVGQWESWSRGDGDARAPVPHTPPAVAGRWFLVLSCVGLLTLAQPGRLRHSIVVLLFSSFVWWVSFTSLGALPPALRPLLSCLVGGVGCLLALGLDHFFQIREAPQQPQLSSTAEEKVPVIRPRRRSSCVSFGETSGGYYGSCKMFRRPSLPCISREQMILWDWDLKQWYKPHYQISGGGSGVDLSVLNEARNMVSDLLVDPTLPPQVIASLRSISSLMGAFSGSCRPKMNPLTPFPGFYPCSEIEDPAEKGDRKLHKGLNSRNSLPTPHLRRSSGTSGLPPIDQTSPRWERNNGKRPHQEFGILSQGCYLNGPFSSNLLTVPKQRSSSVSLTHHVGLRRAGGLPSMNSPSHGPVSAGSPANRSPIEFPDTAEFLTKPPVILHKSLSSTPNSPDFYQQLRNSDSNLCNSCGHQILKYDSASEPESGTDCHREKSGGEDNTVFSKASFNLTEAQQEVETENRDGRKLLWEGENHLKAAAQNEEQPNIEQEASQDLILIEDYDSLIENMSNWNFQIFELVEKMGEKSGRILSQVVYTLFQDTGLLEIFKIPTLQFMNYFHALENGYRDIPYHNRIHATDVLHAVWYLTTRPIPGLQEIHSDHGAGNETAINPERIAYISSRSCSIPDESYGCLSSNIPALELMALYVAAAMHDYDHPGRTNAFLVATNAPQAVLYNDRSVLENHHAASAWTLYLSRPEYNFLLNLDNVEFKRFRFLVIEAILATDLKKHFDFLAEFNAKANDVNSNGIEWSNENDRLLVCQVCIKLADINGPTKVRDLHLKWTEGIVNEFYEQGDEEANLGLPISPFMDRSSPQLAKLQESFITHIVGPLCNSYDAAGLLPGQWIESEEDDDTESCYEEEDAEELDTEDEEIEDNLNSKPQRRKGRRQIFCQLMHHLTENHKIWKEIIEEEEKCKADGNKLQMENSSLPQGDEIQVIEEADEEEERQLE
Consider `Nc1nc2c(ncn2[C@@H]2O[C@@H]3COP(=O)(O)O[C@H]3[C@H]2O)c(=O)[nH]1`, for which the IC50 was 0.1 µM.
Still for that read-out and setting: with `Cc1[nH]c(=O)c(C#N)cc1-c1ccncc1` [MILRINONE] the figure was 1 µM.

Biological target in the next assay: not listed separately
Kind of assay: Inhibition of bovine arterial Phosphodiesterase 4. Set-up: species or system Bos taurus.
`C[C@H]1CC(=O)NN=C1c1ccc2c(NCc3ccccc3)ncnc2c1`: the IC50 is above 10 µM.
Still for that read-out and setting: under `C[C@@H]1CC(=O)NN=C1c1ccc2c(NCc3ccccc3)ncnc2c1` stands above 10 µM; under `CC1CC(=O)NN=C1c1ccc2c(NCc3ccccc3)ncnc2c1` (racemic), above 10 µM.
Same read-out and setting: with `Cc1[nH]c(=O)c(C#N)cc1-c1ccncc1` [MILRINONE] the figure was 10 µM; with `COc1ccc(C2CNC(=O)C2)cc1OC1CCCC1` (configuration not stated) [ROLIPRAM], 0.1 µM.
